Test results taken from ChEMBL document CHEMBL3507680, “University of Dundee, Gates Library screen for HepG2 cell viability”.

Experiment: Human HepG2 cell viability assay in 384 well format
Assay type: toxicity, cell-based
Parameters: dose 125 nL, time 70.5 hour; concentration not given beside the values
Conditions: HepG2 cells, read-out: Inhibition

| SMILES | cytotoxicity at 70.5 h [%] |
| --- | --- |
| COC(=O)c1ccc2c(-c3ccnc(NCCO)n3)c[nH]c2c1 | -1.71 |
| Cc1nc(Cn2c3c(ccc2=O)CC(N)CC3)cs1 (configuration not stated) | 4.04 |
| Cc1noc([C@H]2CC[C@@H]3[C@@H](CCN3c3ncccn3)O2)n1 | -6.01 |
| O=C1CCCN1Cc1nnc2n1CCN(Cc1ccco1)C2 | 2.02 |
| CN1C(=O)C(c2cccnc2)CC12CCN(Cc1nccs1)CC2 (configuration not stated) | 1.71 |
| CCO[C@H]1CC[C@H]2[C@H]1OCCN2C(=O)c1nn(C)c2ccccc12 | 0.53 |
| COCCN1CCC2(CC1)CC(c1cccnc1)C(=O)N2C (configuration not stated) | 1.48 |
| CO[C@@H]1CC[C@H]2[C@H]1OCCN2C(=O)c1nn(C)c2ccccc12 | 20.6 |
| CN(C)C1CCN(C(=O)c2n[nH]c3c2CCN(CC2CCC2)C3)CC1 | 14.2 |
| CC(=O)N1CCC2(CCCN(Cc3ccc(Cl)c(C(F)(F)F)c3)C2)C1 (configuration not stated) | -5.25 |
| O=C1CC2(CCN(Cc3ccoc3)C2)CN1c1ccc2c(c1)OCO2 (configuration not stated) | 3.34 |
| COCC(=O)N1CC[C@@H](O)[C@@H]1Cc1ccccc1 | 5.48 |
| COCCC(=O)N1CCn2c(COCC3CC3)cnc2C1C (configuration not stated) | -0.0494 |
| CCn1cc2c(n1)C(COC)CN(C(=O)COc1ccccc1C)C2 (configuration not stated) | -7.2 |
| CC(C)NC(=O)N1C[C@H]2C[C@H](C(=O)NCc3ccccc3)[C@@H](C1)O2 | -5.16 |
| Cc1ncoc1C(=O)N1CCn2c(COCC3CC3)cnc2C1C (configuration not stated) | 10.1 |
| Cc1noc(C)c1C(=O)N1CC[C@H]2C[C@@H](c3ccncn3)O[C@@H]2C1 | -5.05 |
| O=C(C1CCOCC1)N1CC[C@H]2C[C@@H](c3ccncn3)O[C@@H]2C1 | -8.58 |
| Cn1cccc1C(=O)N1CCCC2(CCCN2Cc2cccnc2)C1 (configuration not stated) | -5.57 |
| COCCN1C(=O)C[C@@H]2[C@H]1CCN2C(=O)COc1ccccc1 | -20.9 |
| O=C(c1ccncc1)N1CCC2(CC1)CC(Oc1cccnc1)CO2 (configuration not stated) | -14.5 |
| O=C(CO)N1CCc2onc(Cn3cccn3)c2C1 | -13.8 |

| SMILES | cytotoxicity at 70.5 h [%] |
| --- | --- |
| O=C(C1CC=CC1)N1CCC2(CC1)CN(Cc1ccccn1)CCO2 | -4.02 |
| COCCN1C[C@H]2[C@@H](C1)N(C(=O)COc1ccccc1)CC[C@H]2OC | -11.3 |
| COCC1CC2(CCN(Cc3ccccn3)CC2)CN1C(C)C (configuration not stated) | -7.51 |
| O=C(c1cc(C2CC2)on1)N1CC[C@]2(C[C@H](Oc3cccnc3)CO2)C1 | -16.2 |
| COCCN1C[C@H]2[C@@H](C1)N(C(=O)c1cccs1)CC[C@H]2OC | -21.9 |
| COCC(=O)N1C[C@@H]2OCCN(Cc3c(C)noc3C)[C@@H]2C1 | -11.4 |
| Cc1cc(CN2CC[C@H]3C[C@H](C(=O)N(C)C)O[C@@H]3C2)no1 | -13.6 |
| O=C(c1ccnnc1)N1C[C@@H](OCC2CCOCC2)[C@H]2OCCC[C@H]21 | -12.9 |
| Cc1ccc(N2CCC3(CCN(C(N)=O)CC3)CC2)nn1 | -27.1 |
| Cc1cncc(C(=O)N2Cc3ccccc3C3(CCN(C)CC3)C2)c1 | -14.6 |
| Cc1ccc(C(=O)N2C[C@H]3CCC[C@@]3(COCc3cccnc3)C2)s1 | -12 |
| C[C@H](O)CNc1cc(-c2cn[nH]c2)ncn1 | 6.37 |
| CC(C)(CO)Nc1cc(-c2ccncc2)ncn1 | -2.83 |
| CC(C)[C@@H](CO)Nc1cc(-c2cn[nH]c2)ncn1 | 0.985 |
| COc1cc(-c2cc(=O)[nH]cn2)cc(OC)c1OC | -5.45 |
| COCCN1CC(=O)c2sc(NC(C)C)nc2C1 | 2.05 |
| Cc1ccc2c(c1)[C@@H](CC(=O)N1CCOCC1)CCO2 | 0.54 |
| OCCNc1nccc(-c2c[nH]nc2-c2ccncc2)n1 | -2.75 |
| OCCNc1nccc(-c2c[nH]nc2-c2cccnc2)n1 | -3.73 |
| Cc1[nH]c2ccccc2c1-c1ccnc(N[C@@H](C)CO)n1 | -3.05 |
| NC(=O)[C@H]1CCCN(c2nccc(-c3ccncc3)n2)C1 | -0.804 |
| CNc1nccc(-c2cnc3sc(C)c(C)n3c2=O)n1 | 0.0839 |

| SMILES | cytotoxicity at 70.5 h [%] |
| --- | --- |
| O=c1[nH][nH]cc1-c1ccnc(NCCc2cccc(O)c2)n1 | -7.19 |
| Nc1ncc(-c2cccc(NC(=O)[C@@H]3CCCCN3)c2)cn1 | -4.27 |
| CC[C@@H](C)[C@@H](N)C(=O)Nc1cccc(-c2cnc(N)nc2)c1 | -6 |
| CNc1ncc(-c2ccnn2C2CCN(C(C)=O)CC2)cn1 | -7.63 |
| CN(C)c1nccc(NCc2cc(-c3cccs3)n[nH]2)n1 | 4.36 |
| CCCN(C)c1ncc2c(n1)N(C)CCN(CC1CC1)C2=O | -1.69 |
| O=c1[nH]c(-c2ccncc2)ncc1-c1ccnc(NC2CC2)n1 | 23.6 |
| COCC(=O)NCC[C@H]1CC(C)(C)Oc2ccc(OC)cc21 | -2.28 |
| Cc1csc2ncc(-c3ccnc(N4CCCC4)n3)c(=O)n12 | -2.62 |
| CC[C@H](C)Nc1ncc(-c2cccc(NC(=O)CNC)c2)cn1 | -0.898 |
| O=C1CN(CC2CC2)Cc2nc(NCc3ccccc3)sc21 | 20.7 |
| COc1ccc(C(=O)NC2CC2)c(OC2CCN(C(C)CO)CC2)c1 (configuration not stated) | 0.736 |
| CCC(=O)c1ccc(OCC(=O)NCC2CC(CC)=NO2)cc1 (configuration not stated) | -1.34 |
| COCCN(Cc1ccc(C)cc1)Cc1c[nH]cn1 | -7.56 |
| CC(C)=CCC1(CO)CCCN(S(C)(=O)=O)C1 (configuration not stated) | 1.79 |
| CN1C(=O)[C@H]2CC[C@@H]1CN(S(=O)(=O)c1ccc(Cl)cc1Cl)C2 | -10.4 |
| O=C(NCCO)c1coc(Cn2cnc3ccccc32)n1 | -1.94 |
| COCCN(Cc1nccs1)C(=O)c1cc(-c2ccc(C)s2)n[nH]1 | -5.54 |
| Clc1cc(NCc2ccncc2)nc2[nH]ccc12 | 13 |
| O=C(CCc1nc(Cl)n[nH]1)N1C[C@@H](CN2CCCCC2)[C@@H](CO)C1 | -6.93 |
| O=C(CCN1C[C@H]2CC[C@@H]1CN(c1ncccn1)C2)NCc1ccco1 | 27.5 |
| CC(O)C1CCN(C(=O)Nc2nc(-c3ccccc3)ns2)CC1 (configuration not stated) | 4.55 |

| SMILES | cytotoxicity at 70.5 h [%] |
| --- | --- |
| COc1cc2[nH]c(=O)c(CN3CCC[C@@H]3C(N)=O)cc2c(OC)c1OC | 23.4 |
| CS(=O)(=O)c1ncc(CN2CCCC(C(N)=O)C2)n1CC1CCCCC1 (configuration not stated) | -1.8 |
| COc1ccnc(N2Cc3cnc(C(C)(C)C)nc3C2)n1 | 0.551 |
| CC(=O)N1CCC(Oc2ccc(Cl)cc2C(=O)N2CCCO2)CC1 | -3.91 |
| CCOc1ccc(CN2CC[C@](C)(O)C(C)(C)C2)cn1 | -1.38 |
| O=C1CC[C@H]2[C@H](CCN2c2ncccn2)N1c1ccccc1 | -10.3 |
| CN(C)C(=O)CN1CCOCC2(CCN(c3ncc(F)cn3)CC2)C1 | -6.93 |
| CN(C)C(=O)CO[C@@H]1CC[C@H]2[C@H]1OCCN2c1ncc(F)cn1 | -6.35 |
| Cc1noc([C@@H]2C[C@@H]3CCN(c4nnc(C)s4)C[C@H]3O2)n1 | -11.6 |
| Fc1cnc(N2CCO[C@H]3[C@H](OCC4CCOCC4)CC[C@@H]32)nc1 | -9.91 |
| Fc1cnc(N2C[C@@H](OCC3CCOCC3)[C@H]3OCCC[C@H]32)nc1 | -7.94 |
| Cc1noc([C@@H]2CC[C@@H]3[C@@H](CCN3c3nnc(C)s3)O2)n1 | -8.18 |
| Cc1cncc(C(=O)N2C[C@@H]3CN(S(C)(=O)=O)CCO[C@@H]3C2)c1 | 19.6 |
| CC(C)OCc1nn(C)c2c1CCN(CC1CC1)C2 | -2.45 |
| O=C(NC1CCC1)[C@H]1C[C@@H]2CN(CC3CC3)C[C@H]1O2 | -0.535 |
| CNC(=O)[C@@]12CCO[C@@H]1CCN(Cc1ccc3c(c1)OCO3)C2 | 9.37 |
| c1coc(CN2CCCn3c(nnc3Cn3cccc3)C2)c1 | -3.91 |
| O=C1CC2(CCN(CC3CC3)C2)CN1c1ccc2c(c1)OCO2 (configuration not stated) | 3.77 |
| CN(C)CC(=O)N1CCC2(CC(=O)N(c3cccc(C#N)c3)C2)C1 (configuration not stated) | 4.59 |
| O=C(NCCCN1CCOCC1)c1ccn(-c2ccc3ccccn23)n1 | 23.5 |
| N#Cc1cccc(N2CC3(CCN(C(=O)c4cccnc4)C3)CC2=O)c1 (configuration not stated) | -0.309 |
| O=C(C1=CCCCC1)N1CCC2(CC1)COC(COc1ccccn1)C2 (configuration not stated) | -3.14 |

| SMILES | cytotoxicity at 70.5 h [%] |
| --- | --- |
| CCOCC1CC2(CCN(C(=O)c3ccccn3)CC2)CO1 (configuration not stated) | -6.81 |
| CN(C)CC(=O)N1C[C@H]2CCC[C@@]2(COc2ccccn2)C1 | -16.4 |
| c1cnn(Cc2nnc3n2CCCN(CC2CCOCC2)C3)c1 | -2.91 |
| CCS(=O)(=O)N1CCC2(CC1)CN(Cc1ccccn1)C(=O)CO2 | -11.1 |
| COCC1CN(Cc2ccc(OC)cc2)Cc2nn(C)cc21 (configuration not stated) | 8.65 |
| Cn1cc(CN2CCCC3(CCCN3S(C)(=O)=O)C2)cn1 (configuration not stated) | -16.8 |
| Cc1nc(Cn2c3c(ccc2=O)CC(NC(C)C)CC3)cs1 (configuration not stated) | -9.3 |
| Fc1cccc(CN2C[C@@H]3CN(c4ncccn4)C[C@@H]3C2)c1 | -3.5 |
| CCc1cnc(N2CC[C@H]3[C@@H]2CCC(=O)N3c2cccnc2)nc1 | -7.03 |
| CC(C)n1nc(CN2CCCC2)c2c1CN(CC1CC1)CC2 | -1.54 |
| Cc1cccc(CN2CCC3(CC2)CC(c2cccnc2)C(=O)N3C)n1 (configuration not stated) | 15.6 |
| c1ccc(OCC2C[C@@H]3[C@@H](C2)OCCN3CC2CCOCC2)nc1 (some centres not stated) | -0.766 |
| Cn1cc(CN2CCC3(CC2)CC(c2ccncc2)C(=O)N3)cn1 (configuration not stated) | -10.1 |
| c1cnc(N2CCC3(COCCN(CC4CC4)C3)C2)nc1 (configuration not stated) | -21.1 |
| CCc1ccc(CN2CCC3(CC2)NC(=O)CC3c2ccncc2)o1 (configuration not stated) | -23 |
| O=C(Nc1cccnc1)[C@@H]1C[C@H]2OCC[C@H]2N(Cc2ccsc2)C1 | 0.225 |
| CN(C)CCN1CCCC12CCN(C(=O)c1cccn1C)CC2 | -15.1 |
| CN1CC(=O)N(c2ccccc2)CC12CCN(CC1CC1)C2 (configuration not stated) | -26.6 |
| CN(C)CCOCC1CN(Cc2ccsc2)Cc2ccnn2C1 (configuration not stated) | 3.88 |
